Test results published in patent US20130273546A1, “LOW TEMPERATURE ENZYME AND METHOD THEREOF” (UNIVERSITI PUTRA MALAYSIA, priority 2009, published 2013).

B1: recombinant PI12 protease: cold-adapted serine protease of L. antarcticum PI12 (SEQ ID NO: 2) expressed in Pichia pastoris (protein, listed as Leucosporidium antarcticum)
chain: MLFLPVLLLLLPGVTAFLNPVTNRATNAISSTQYLSNAYILELDLSTPGLVKRDSTPDSILEDVLTSVGRNGIKYQLRHRFISPTLFHGASITVPPGISRSQIASLRGIKRVWPVRKFSRPSAVVDADGGGSGFSGSPIKAALMGVKELGKRANAYAGDTFGPHVMTGVNETHEAGLLGAGIKIGVLDTGVDYLNPILGGCFGPGCHMSFGYDLVGDDYDGDNAPVPDVDPFASCDPHGTHVTGIIGALPNAFGFTGVAPAATLGHYRVFGCTGFVGEDIILAGLMRGVEDNCNVLTLSLGGPGGWVKGTPASILIDQIEAQGILVTVATGNSGAEGMFFSESPASTINGLSIASTDVTDLIAYNATVSGQPAIPYLSATPLNVVANSFRVHFTSTDPNNPVDACSPLPAGAPDFANYVTVVQRGTCTFVTKYQNVLNAGGKIVLLYNSEGAGNLPYLTPNGVGIDAVAGLRRSDGLKLLSYYQNANKRLTLRFPKGKIVAGLTDTITGGLISGYSTFGPTNDLYGQPTLSAPGGNILSTFPLSEGGVAVISGTSMSCPFVAGSAAVLMAARASENLTPLEIRSLLTTTAKLTPVSLLGSTPLVSVIRQGGGLVQVAKALAAKTLISPHELLLNDTANANYVQTIKIKNTNSWAMKYTFSSAVAQGLGTFDASGDILPTLDPVAVSGAQATVAFNTRILSVAPGATGSVVATITPPVLPVADAARFPIFSGWIRVNGQGARDSSRNEAYTVPYFGLAAKMIDMQVLDTTETIYGPGYAYPFVIDDAIGDIQSTTTSYSRNLGPTVFARFATGTLHYSLDLVLADIAFTPTYPNSSPATRFVKRSLTQHTSAASHLAKRRVSIATINPKATLVADRQLHSDVPIEGNIFTQPFTGRDYLVDAAPTGSTDRTVTFNGQYAENGLVRTAVTGTSYRFLLRALKISGDAMYEDQYESWLSLPFSFRA
B2: Cold-adapted protease PI12: protease from Leucosporidium antarcticum strain PI12 (NCYC 3391), amino acid sequence SEQ ID NO: 2, GenBank CAQ76821 (protein, listed as Leucosporidium antarcticum)
chain: MLFLPVLLLLLPGVTAFLNPVTNRATNAISSTQYLSNAYILELDLSTPGLVKRDSTPDSILEDVLTSVGRNGIKYQLRHRFISPTLFHGASITVPPGISRSQIASLRGIKRVWPVRKFSRPSAVVDADGGGSGFSGSPIKAALMGVKELGKRANAYAGDTFGPHVMTGVNETHEAGLLGAGIKIGVLDTGVDYLNPILGGCFGPGCHMSFGYDLVGDDYDGDNAPVPDVDPFASCDPHGTHVTGIIGALPNAFGFTGVAPAATLGHYRVFGCTGFVGEDIILAGLMRGVEDNCNVLTLSLGGPGGWVKGTPASILIDQIEAQGILVTVATGNSGAEGMFFSESPASTINGLSIASTDVTDLIAYNATVSGQPAIPYLSATPLNVVANSFRVHFTSTDPNNPVDACSPLPAGAPDFANYVTVVQRGTCTFVTKYQNVLNAGGKIVLLYNSEGAGNLPYLTPNGVGIDAVAGLRRSDGLKLLSYYQNANKRLTLRFPKGKIVAGLTDTITGGLISGYSTFGPTNDLYGQPTLSAPGGNILSTFPLSEGGVAVISGTSMSCPFVAGSAAVLMAARASENLTPLEIRSLLTTTAKLTPVSLLGSTPLVSVIRQGGGLVQVAKALAAKTLISPHELLLNDTANANYVQTIKIKNTNSWAMKYTFSSAVAQGLGTFDASGDILPTLDPVAVSGAQATVAFNTRILSVAPGATGSVVATITPPVLPVADAARFPIFSGWIRVNGQGARDSSRNEAYTVPYFGLAAKMIDMQVLDTTETIYGPGYAYPFVIDDAIGDIQSTTTSYSRNLGPTVFARFATGTLHYSLDLVLADIAFTPTYPNSSPATRFVKRSLTQHTSAASHLAKRRVSIATINPKATLVADRQLHSDVPIEGNIFTQPFTGRDYLVDAAPTGSTDRTVTFNGQYAENGLVRTAVTGTSYRFLLRALKISGDAMYEDQYESWLSLPFSFRA

How the values were obtained:
[1] = test system: Leucosporidium antarcticum strain PI12; experiment: Growth of the Antarctic isolate on solid media with antibiotics; assay type: cell-based; conditions: 10 days at 4° C.
Protocol: Antarctic microorganism isolated strain was grown on different types of solid media (nutrient agar, sabouroud dextrose agar and potato dextrose agar) and several antibiotics for 10 days at 4° C. and the culture characteristics (colony colour, shape, texture) were determined. Simple staining was performed to identify the cell morphology, arrangement and size of the psychrophilic isolate PI12. Scanning electron microscopy (SEM) and transmission electron microscopy (TEM) were also conducted to study the surface features and the internal ultrastructure in thin sections of the PI12 cells. […] The growth for this microorganism was best at 4° C. and decreased through the temperature range tested (4° C.-20° C.) but no growth at over 20° C. […] The Antarctic microorganism strain PI12 was grown and screened qualitatively for the protease production on skim milk agar. The plate was incubated at 4° C. for 10 days. Protease was excreted out of the cells into the surrounding media, catalyzing the breakdown of casein and formed clearing zones around the growth area.

azocasein = experiment: Protease activity assay with azocasein as substrate (modified method of Brock et al.), culture supernatants; assay type: biochemical; conditions: GpPro2 20.3 U/mL versus wild-type 1.0 U/mL
Protocol: After 10 days of incubation, the supernatant was assayed for protease activity. Protease activity was determined by the modified method of Brock et al. (1982). Azocasein (0.5%, 1 mL) was dissolved in 0.1 M Tris-HCl-2 mM CaCl2 pH 7 was pipetted into vials and pre-incubated at 4° C. The reaction was initiated by addition of 100 μL of enzyme solution for 30 min (unless stated otherwise). An equal volume of 10% (w/v) trichloroacetic acid (TCA) was added to terminate the reaction and the mixture was allowed to stand at room temperature for 30 min before centrifugation in eppendorf microcentrifuge at 13,000×g for 10 min. The supernatant was removed and mixed with an equal volume of 1 N NaOH. The absorbance was read at 450 nm using UV/Visible spectrophotometer Ultraspec 2100 pro (Amersham Biosciences, USA). One unit of azocaseinase activity was defined as the amount of enzyme activity which produces an absorbance change of 0.001 per min at 4° C. under the standard assay condition. For control, the enzyme was added at the end of the incubation period. […]
Assay activity of recombinant PI12 protease was determined by the modified method of Brock et a (1982) the assay activity for recombinant PI12 protease was performed at 15° C.

[2] = Temperature profile and storage stability of the protease activity; assay type: biochemical

Molecule	resistance of the microorganism toward antibiotic [1]	further results
CC1(C)S[C@@H]2[C@H](NC(=O)[C@H](N)c3ccccc3)C(=O)N2[C@H]1C(=O)O [ampicillin]	resistance	–
O=C(N[C@H](CO)[C@H](O)c1ccc([N+](=O)[O-])cc1)C(Cl)Cl [chloramphenicol]	resistance	–
CN[C@@H]1[C@H](O[C@H]2[C@H](O[C@H]3[C@H](O)[C@@H](O)[C@H](N=C(N)N)[C@@H](O)[C@@H]3N=C(N)N)O[C@@H](C)[C@]2(O)C=O)O[C@@H](CO)[C@H](O)[C@H]1O [streptamycin]	resistance	–
B1	–	recombinant protease activity relative to that produced by wild-type host (azocasein): 20.3 fold
B2	–	optimum temperature [2]: 4 [deg.] C.; enzyme activity retained ([2]; after incubating the enzyme at 4[deg.] C. for about 10 days): One hundred
